35 substances from PMC9958131 (Nature Communications, 2023) can be followed below.

No end group written: not given here. *: point of attachment. Cam = NC(=O)C*

The test system of one series is recombinant human PAD2 and PAD4. In words: Citrullination site mapping by trypsin digestion and mass spectrometry; protein-level modifications over native, PAD2- and PAD4-citrullinated samples combined. In kind it is biochemical. The note with it: trypsin digest, Sequest HT search; co-identified proteins in the fibrinogen and vimentin samples (native, PAD2-cit, PAD4-cit); not split by sample or enzyme. From the text:
(§1) Description: Raw mass spectrometry data for proteolytic mapping of fibrinogen, vimentin, and hnRNP A2/B1 by cathepsins B, S, and H (sheets 1-6); citrullination site mapping of fibrinogen and vimentin by trypsin digestion (sheets 7-8); and the natural antigen processing assay with native, PAD2-citrullinated (PAD2-cit), and PAD4-citrullinated (PAD4-cit) fibrinogen (sheets 9-11).
Turning to Clusterin, the “Modifications (Deamidated [R...] = citrullinated arginine positions found)” value was “Deamidated [R306; R425]”.

Consider Filaggrin-2, for which the “Modifications (Deamidated [R...] = citrullinated arginine positions found)” value is “Deamidated [R63]”.

In the case of “Glyceraldehyde-3-phosphate dehydrogenase”, the “Modifications (Deamidated [R...] = citrullinated arginine positions found)” value was “Deamidated [R80]”.

On to Heat shock cognate 71 kDa protein, for which the “Modifications (Deamidated [R...] = citrullinated arginine positions found)” value was “Deamidated [R323]”.

In the case of Hornerin, the “Modifications (Deamidated [R...] = citrullinated arginine positions found)” value is “Deamidated [R1507; R2447; R3930]”.

As for Interleukin-8, the “Modifications (Deamidated [R...] = citrullinated arginine positions found)” value is “Deamidated [R74]”.

With Pre-mRNA-processing-splicing factor 8, the “Modifications (Deamidated [R...] = citrullinated arginine positions found)” value was “Deamidated [R362]”.

For Serotransferrin, the “Modifications (Deamidated [R...] = citrullinated arginine positions found)” value was “Deamidated [R239]”.

As for Tubulin beta chain, the “Modifications (Deamidated [R...] = citrullinated arginine positions found)” value is “Deamidated [R2; R121; R156; R162]”.

Consider Tubulin beta-2A chain, for which the “Modifications (Deamidated [R...] = citrullinated arginine positions found)” value was “Deamidated [R2; R121]”.

A further series has as its system cathepsins B, S, and H. In words: Proteolytic mapping (ProtMap) of native and citrullinated autoantigens by cathepsins B, S, and H with LFQ-MS. In kind it is biochemical, human. The note with it: sites found over all samples of the cathepsin B, H digests, MSFragger search. Here is the method:
Prior to proteolytic mapping, citrullinated antigens were generated by incubating recombinant human antigens—hnRNP A2/B1 (RA33; custom-made as previously described by in ref. [24]), fibrinogen (Cayman Chemical), and vimentin (PeproTech)—with Sf9-purified peptidylarginine deiminase 2 or 4 (PAD2 or PAD4; Inova) at a 17:1 mass ratio in citrullination buffer (100 mM Tris, 1 mM DTT, 5 mM CaCl2, pH 7.5) for 4 h at 37 °C. Native antigens were diluted in the same buffer without PAD enzymes and without incubation at 37 °C to prevent degradation. Citrullination was confirmed by anti-peptidylcitrulline (clone F95, EMD Millipore) immunoblotting. […] The resulting peptide repertoires were then analyzed by LFQ–MS.
Prior to MS, the samples were reduced and alkylated by incubating in 10 mM Tris (2-Carboxyethyl) phosphine hydrochloride (TCEP, v/v) and 50 mM chloroacetamide (CAA, v/v) for 1 h at room temperature. […] The peptide samples were analyzed on an Orbitrap Fusion Lumos Tribrid mass spectrometer interfaced with an Ultimate 3000 RS Autosampler nanoflow liquid chromatography system (Thermo Scientific). […] The most intense ions with charge states of 2–5 were isolated in a 3-s cycle, fragmented using higher-energy collisional dissociation (HCD) fragmentation with 32% normalized collision energy, and detected at a mass resolution of 50,000 at an m/z of 200. […]
On to “Vimentin: recombinant human vimentin (PeproTech), RA autoantigen; native or citrullinated by PAD2 or PAD4”, for which the “Modifications (deamidated arginine = citrullinated sites detected)” value is “Deamidated [R13; R23; R36; R64; R100; R113; R158; R175; R184; R196; R207; R270; R273; R304; R310; R364; R401; R410; R424; R440; R450]”.

Another series has as its system PAD2 / PAD4. As to the kind of experiment: Citrullination site mapping of fibrinogen and vimentin by trypsin digestion, protein-level sheet (native, PAD2- and PAD4-citrullinated samples searched together). In kind it is biochemical, Homo sapiens. The note with it: deamidated Arg (= citrullinated) positions found by Sequest HT after trypsin digestion; one list for all six samples (native, PAD2-, PAD4-citrullinated fibrinogen and vimentin); co-purified/contaminant proteins.
Description: as §1
Consider “MYLNVIINNTWQGDFSQIKVFLMTLKNMISKLKTECGCQFTSKLEGMFRDMSISNTTMDEFRQHLQATGVSLGGVDLTVRVLTTGYWPTQSATPKCNIPPAPRHAFEIFRRFYLAKHSGRQLTLQHHMGSADLNATFYGPVKKEDGSEVGVGGAQVTGSNTRKHILQVSTFQMTILMLFNNREKYTFEEIQQETDIPERELVRALQSLACGKPTQRVLTKEPKSKEIENGHIFTVNDQFTSKLHRVKIQTVAAKQGESDPERKETRQKVDDDRKHEIEAAIVRIMKSRKKMQHNVLVAEVTQQLKARFLPSPVVIKKRIEGLIEREYLARTPEDRKVYTYVA [Peptide A0A087WTG3]”, for which the Modifications entry is “Deamidated [R283]”.

Consider “P22090 (LREC(Cam)LPLIVFLR) [Peptide P22090]”, for which the Modifications result was “Deamidated [R39]”.

Take “P62269 (IPDWFLNRQK; also: deamidated, site not given here) [Peptide P62269]”: the Modifications entry was “Deamidated [R86]”.

Another series has as its system PAD2 and PAD4. As to the kind of experiment: Citrullination site mapping of fibrinogen and vimentin by trypsin digestion and mass spectrometry (protein-level sheet, one search over native, PAD2-cit and PAD4-cit samples). As to conditions: modified residues found per protein; Deamidated [R..] = deamidated (citrullinated) arginine positions; trypsin digest, Sequest HT; not split by sample (native, PAD2-citrullinated, PAD4-citrullinated fibrinogen and vimentin). Format: biochemical, human.
Description: as §1
As to A0A4W9A917 [Peptide A0A4W9A917], the Modifications result was “Deamidated [R365]”.

Take P01024 [Peptide P01024]: the Modifications result is “Deamidated [R315; R386; R462; R710; R712; R1134; R1507; R1512; R1532; R1582]”.

Consider P01834 [Peptide P01834], for which the Modifications result was “Deamidated [R1]”.

For P01876 [Peptide P01876], the Modifications entry was “Deamidated [R253; R263; R273]”.

For P02751 [Peptide P02751], the Modifications entry is “Deamidated [R83; R107; R114; R130; R155; R156; R241; R252; R265; R272; R290; R479; R694; R784; R1157; R1197; R1473; R1525; R1543; R1664; R1844; R1909; R1950; R1982; R2165; R2335; R2340; R2357; R2417; R2426; R2447; R2451]”.

In the case of P02768 [Peptide P02768], the Modifications entry was “Deamidated [R105; R122; R138; R141; R169; R281; R434; R452; R469; R509]”.

For “P04259 (ATGGGLSSVGGGSSTIK) [Peptide P04259]”, the Modifications entry is “Deamidated [R182; R222; R326; R369]”.

“P04264 (GGGFGGGGIGGGGFGG) [Peptide P04264]”: the Modifications entry is “Deamidated [R29; R65; R239; R267; R277; R386; R432; R483; R518; R549]”.

As for P04275 (IDVPWNVVPEK) [Peptide P04275], the Modifications entry is “Deamidated [R236; R768; R782; R816; R906; R945; R1204; R1205; R1597; R1641; R1853; R1888; R1916; R1921; R1924; R1943; R1956; R1998; R2099; R2185; R2464; R2535; R2663; R2681; R2730]”.

With P05160 (LIENGYFHPVK) [Peptide P05160], the Modifications entry was “Deamidated [R69; R147; R271; R273; R380; R424; R432; R463; R507; R603]”.

Regarding P08779 [Peptide P08779], the Modifications entry was “Deamidated [R127; R284; R441]; Met-loss+Acetyl [N-Term]”.

In the case of P13645 (LQIDNARLAADDF) [Peptide P13645], the Modifications result was “Deamidated [R15; R35; R156; R228; R245; R256; R322; R333; R399; R441; R450]”.

Consider “P17661 (VELQELNDRFANYIEKVR; also: deamidated, site not given here) [Peptide P17661]”, for which the Modifications entry was “Deamidated [R118; R386]”.

Consider P23142 (VRPIVGPFH) [Peptide P23142], for which the Modifications result is “Deamidated [R90; R179; R181; R287; R289; R343; R353; R467; R561; R562; R582; R642]”.

Regarding “P35527 (GGGGGGGLGSGGSIRSSY) [Peptide P35527]”, the Modifications entry was “Deamidated [R95; R163; R233; R250; R261; R327; R374; R427]”.

Regarding “P35908 (GPGGFGPGGYPGGIHE) [Peptide P35908]”, the Modifications entry was “Deamidated [R45; R122; R221; R238; R247; R341; R384; R524; R544]”.

Regarding P41219 (EYQELLNVK) [Peptide P41219], the Modifications entry is “Deamidated [R397]”.

In the case of “P48668 (QC(Cam)ASLQAAIADAEQR) [Peptide P48668]”, the Modifications result is “Deamidated [R182; R222; R326]”.

On to “P49771 (LLQETSEQLVALKPWITR; also: deamidated, site not given here) [Peptide P49771]”, for which the Modifications result is “Deamidated [R81; R85; R100; R147]”.

Take “Q14525 (EVEQWFATQTEELNK) [Peptide Q14525]”: the Modifications entry was “Deamidated [R293]”.

On to “Q15323 (LNVEVDAAPTVDLNR) [Peptide Q15323]”, for which the Modifications result was “Deamidated [R293]”.

Regarding “Vimentin: recombinant human vimentin (PeproTech), RA autoantigen; native or citrullinated by PAD2 or PAD4”, the Modifications entry is “Deamidated [R13; R23; R28; R36; R45; R50; R64; R69; R71; R78; R100; R113; R122; R145; R155; R158; R159; R170; R175; R184; R186; R196; R207; R217; R222; R270; R273; R304; R310; R320; R321; R342; R345; R364; R378; R381; R401; R410; R424; R440; R450]”.
